Data published in patent US8362022B2, “Selective subtype alpha 2 adrenergic agents and methods for use thereof” (Allergan, Inc., priority 2008, dated 2013).
Read-outs that look alike come from different tables or passages of the source.

Tests used:
Format in all cases: cell-based
alpha 2B receptor = molecular target: T1, alpha 2B receptor (Homo sapiens, UniProt P18089); test: RSAT assay (Receptor Selection and Amplification Technology), Alpha 2B; settings: for Intrinsic Activity efficacy Alpha 2B: value in parentheses, ratio of maximal effect to that of brimonidine
T1 construct: expressed in transfected cells; host or cells: NIH-3T3
T1 sequence (P18089 1-450): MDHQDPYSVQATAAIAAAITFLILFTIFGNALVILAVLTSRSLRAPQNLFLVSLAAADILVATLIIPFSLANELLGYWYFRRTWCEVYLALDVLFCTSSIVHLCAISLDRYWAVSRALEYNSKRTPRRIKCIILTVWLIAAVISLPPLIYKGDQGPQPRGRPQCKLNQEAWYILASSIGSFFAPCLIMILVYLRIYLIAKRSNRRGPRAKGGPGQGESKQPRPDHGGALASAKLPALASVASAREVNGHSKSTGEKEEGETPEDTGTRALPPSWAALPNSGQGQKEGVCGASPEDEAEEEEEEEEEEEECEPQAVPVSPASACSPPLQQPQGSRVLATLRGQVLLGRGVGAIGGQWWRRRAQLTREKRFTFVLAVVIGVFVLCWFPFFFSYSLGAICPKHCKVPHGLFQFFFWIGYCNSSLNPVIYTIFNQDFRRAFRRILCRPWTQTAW
Procedure: (§1) The RSAT assay measures a receptor-mediated loss of contact inhibition that results in selective proliferation of receptor-containing cells in a mixed population of confluent cells. The increase in cell number is assessed with an appropriate transfected marker gene such as β-galactosidase, the activity of which can be easily measured in a 96-well format. Receptors that activate the G protein, Gq, elicit this response. Alpha 2 receptors, which normally couple to Gi, activate the RSAT response when coexpressed with a hybrid Gq protein that has a Gi receptor recognition domain, called Gq/i5.
(§2) NIH-3T3 cells are plated at a density of 2×10^6 cells in 15 cm dishes and maintained in Dulbecco's modified Eagle's medium supplemented with 10% calf serum. One day later, cells are cotransfected by calcium phosphate precipitation with mammalian expression plasmids encoding p-SV-β-galactosidase (5-10 μg), receptor (1-2 μg) and G protein (1-2 μg). 40 μg salmon sperm DNA may also be included in the transfection mixture. […] Cells are thawed and 100 μl added to 100 μL aliquots of various concentrations of drugs in triplicate in 96-well dishes. Incubations continue 72-96 hr at 37° C. After washing with phosphate-buffered saline, β-galactosidase enzyme activity is determined by adding 200 μL of the chromogenic substrate (consisting of 3.5 mM o-nitrophenyl-β-D-galactopyranoside and 0.5% nonidet P-40 in phosphate buffered saline), incubating overnight at 30° C. and measuring optical density at 420 nm. The absorbance is a measure of enzyme activity, which depends on cell number and reflects a receptor-mediated cell proliferation. The efficacy or intrinsic activity is calculated as a ratio of the maximal effect of the drug to the maximal effect of a standard full agonist for each receptor subtype. Brimonidine, the chemical structure of which is shown below, is used as the standard agonist for the alpha 2B and alpha 2C receptors. […] NA stands for “not active” at concentrations less than 3-10 micromolar.

Alpha 1A = molecular target: T2, Alpha 1A (Homo sapiens, UniProt P35348); test: RSAT assay (Receptor Selection and Amplification Technology), Alpha 1A; settings: value in parentheses, ratio of maximal effect of drug to maximal effect of standard full agonist
T2 sequence (P35348 1-466): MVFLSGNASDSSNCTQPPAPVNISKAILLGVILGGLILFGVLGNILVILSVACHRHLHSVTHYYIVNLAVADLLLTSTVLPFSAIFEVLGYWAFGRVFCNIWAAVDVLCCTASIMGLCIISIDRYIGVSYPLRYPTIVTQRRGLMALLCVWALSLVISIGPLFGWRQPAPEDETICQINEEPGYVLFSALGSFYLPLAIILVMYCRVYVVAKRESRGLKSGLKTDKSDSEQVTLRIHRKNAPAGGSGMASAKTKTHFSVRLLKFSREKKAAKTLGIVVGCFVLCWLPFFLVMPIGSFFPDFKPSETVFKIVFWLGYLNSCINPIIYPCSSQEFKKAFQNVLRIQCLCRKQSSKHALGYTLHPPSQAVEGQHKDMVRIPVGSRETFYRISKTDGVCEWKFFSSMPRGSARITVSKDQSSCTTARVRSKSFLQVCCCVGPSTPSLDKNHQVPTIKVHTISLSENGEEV
Procedure: as §1, §2

alpha 2C receptor = molecular target: T3, alpha 2C receptor (Homo sapiens, UniProt P18825); test: RSAT assay (Receptor Selection and Amplification Technology), Alpha 2C
T3 construct: expressed in transfected cells; host or cells: NIH-3T3
T3 sequence (P18825 1-462): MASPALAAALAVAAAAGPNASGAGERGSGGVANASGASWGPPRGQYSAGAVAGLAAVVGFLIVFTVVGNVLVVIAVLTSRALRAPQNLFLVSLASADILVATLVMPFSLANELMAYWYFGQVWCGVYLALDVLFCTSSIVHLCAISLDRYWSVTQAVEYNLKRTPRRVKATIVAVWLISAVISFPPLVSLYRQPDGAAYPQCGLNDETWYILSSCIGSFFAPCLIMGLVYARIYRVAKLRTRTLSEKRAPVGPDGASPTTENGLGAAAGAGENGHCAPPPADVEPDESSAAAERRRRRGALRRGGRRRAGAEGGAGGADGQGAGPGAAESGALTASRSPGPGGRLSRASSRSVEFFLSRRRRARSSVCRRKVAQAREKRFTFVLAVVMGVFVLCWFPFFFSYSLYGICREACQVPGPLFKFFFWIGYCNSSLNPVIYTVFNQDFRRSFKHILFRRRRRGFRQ
Procedure: as §1, §2

[1] = RSAT, Table 2, read-out: Potency nM (EC50) Alpha 2B

SMILES	EC50 (alpha 2B receptor; [1])	Intrinsic Activity efficacy Alpha 2B (alpha 2B receptor; RSAT, Table 2)	other results
c1ccc(C(Cc2cccnc2)NC2=NCCN2)cc1 (stereo not drawn)	16 nM	0.74	–
Clc1ncccc1CC(NC1=NCCO1)c1cccc(Br)c1 (stereo not drawn)	0.14 nM	1.01	–
Fc1ncccc1CC(NC1=NCCO1)c1cccc(Cl)c1 (stereo not drawn)	0.21 nM	0.81	–
Cc1cncc(CC(NC2=NCCO2)c2cccc(C)c2)c1 (stereo not drawn)	3 nM	1.1	–
c1ccc(C(Cc2cccnc2)NC2=NCCO2)cc1 (stereo not drawn)	–	0.76	EC50 (alpha 2B receptor): 4.5 nM
COc1cccc(C(Cc2cccnc2)NC2=NCCO2)c1 (stereo not drawn)	56 nM	0.65	–
Cc1cccc(C(Cc2cccnc2)NC2=NCCO2)c1 (stereo not drawn)	8.2 nM	1.24	–
Cc1c(Br)cncc1CC(NC1=NCCO1)c1cccc(Cl)c1 (stereo not drawn)	1.9 nM	1.35	–
Cc1cccc(C(Cc2cncc(Br)c2C)NC2=NCCO2)c1 (stereo not drawn)	2.7 nM	1.02	–
Cc1cncc(CC(NC2=NCCO2)c2cccc(Cl)c2)c1C (stereo not drawn)	8.5 nM	0.9	–
Cc1c(Cl)cncc1CC(NC1=NCCO1)c1cccc(Cl)c1 (stereo not drawn)	5.6 nM	1.08	–
c1ccc(C(Cc2ccncc2)N=C2NCCN2)cc1 (stereo not drawn) [Compound 3, N-(Imidazolidin-2-ylidene)-1-phenyl-2-(pyridin-4-yl)ethanamine]	–	–	Intrinsic Activity efficacy Alpha 1A (Alpha 1A): 0.63
Cc1cccc(C(Cc2ccncc2)N=C2NCCN2)c1C (stereo not drawn) [Compound 5, 1-(2,3-Dimethylphenyl)-N-(imidazolidin-2-ylidene)-2-(pyridin-4-yl)ethanamine]	–	–	EC50 (alpha 2B receptor): 3.1 nM; Intrinsic Activity efficacy Alpha 2B (alpha 2B receptor; RSAT, Table 1): 1.15; EC50 (alpha 2C receptor): 8.4 nM; Intrinsic Activity efficacy Alpha 2C (alpha 2C receptor; RSAT, value in parentheses, ratio of maximal effect to that of brimonidine): 0.49
Clc1cccc(C(Cc2ccncc2)/N=C2/NCCO2)c1 (stereo not drawn) [Compound 8, 1-(3-Chlorophenyl)-N-(oxazolidin-2-ylidene)-2-(pyridin-4-yl)ethanamine]	–	–	Intrinsic Activity efficacy Alpha 1A (Alpha 1A): 1.4
COc1ccccc1C(Cc1ccncc1)N=C1NCCN1 (stereo not drawn) [Compound 10, N-(Imidazolidin-2-ylidene)-1-(2-methoxyphenyl)-2-(pyridin-4-yl)ethanamine]	–	–	Intrinsic Activity efficacy Alpha 1A (Alpha 1A): 1.0
Fc1c(Cl)cccc1C(Cc1ccncc1)/N=C1/NCCO1 (stereo not drawn) [Compound 19, 1-(3-Chloro-2-fluorophenyl)-N-(oxazolidin-2-ylidene)-2-(pyridin-4-yl)ethanamine]	–	–	Intrinsic Activity efficacy Alpha 1A (Alpha 1A): 1.27
Fc1c(Cl)cccc1C(Cc1ccncc1)N=C1NCCN1 (stereo not drawn) [Compound 20, 1-(3-Chloro-2-fluorophenyl)-N-(imidazolidin-2-ylidene)-2-(pyridin-4-yl)ethanamine]	–	–	Intrinsic Activity efficacy Alpha 1A (Alpha 1A): 0.6
Cc1cccc(C(Cc2cccnc2)/N=C2/NCCS2)c1C (stereo not drawn) [Compound 22, 1-(2,3-Dimethylphenyl)-2-(pyridin-3-yl)-N-(thiazolidin-2-ylidene)ethanamine]	–	–	Intrinsic Activity efficacy Alpha 1A (Alpha 1A): 0.7

Continued, in another order:

EC50 (alpha 2B receptor; [1])	Intrinsic Activity efficacy Alpha 2B (alpha 2B receptor; RSAT, Table 2)	SMILES	other results
6.7 nM	0.93	Cc1cccc(C(Cc2ccccn2)NC2=NCCO2)c1C (stereo not drawn)	–
1.3 nM	1.05	Clc1cccc(C(Cc2cccnc2Br)NC2=NCCO2)c1 (stereo not drawn)	–
0.48 nM	1.01	Clc1cccc(C(Cc2cccnc2Cl)NC2=NCCO2)c1 (stereo not drawn)	–
0.06 nM	0.88	Cc1cccc(C(Cc2cccnc2Cl)NC2=NCCO2)c1 (stereo not drawn)	–
0.09 nM	0.87	Fc1cccc(C(Cc2cccnc2Cl)NC2=NCCO2)c1 (stereo not drawn)	–
4 nM	1.12	Cc1cncc(CC(NC2=NCCO2)c2cccc(Cl)c2)c1 (stereo not drawn)	–
5.6 nM	0.89	Clc1cccc(C(Cc2cccnc2)NC2=NCCO2)c1Cl (stereo not drawn)	–
3.9 nM	1.11	Cc1cccc(C(Cc2cncc(C)c2C)NC2=NCCO2)c1 (stereo not drawn)	–
